From paper PMC4433340 (PLoS Neglected Tropical Diseases, 2015)

Columns and labels:
Format in all cases: cell-based, human
[1] = system: E-selectin, ICAM-1 and VCAM-1 expression on T. cruzi-infected EA.hy926 and HUVEC cells; assay: Endothelial cell adhesion molecule surface expression by flow cytometry / immunofluorescence; conditions: EA.hy926
Method: Then, cells were infected with trypomastigotes at a MOI of 10 and incubated for 16 hours. Cells were detached with 1X EDTA-PBS at 0.5 mM. The harvested cells were washed with cold PBS and centrifuged at 800 x g for 5 minutes. Then, cells were washed with flow cytometry buffer three times. 100 μL of cell suspensions were incubated for 45 min at 4°C in the dark with mouse monoclonal anti- human E-selectin (5 μL undiluted), ICAM-1(3 μL undiluted), and VCAM-1 (1 μL undiluted) that were conjugated with PE, FITC and APC, respectively (BioLegend, USA). Cell suspensions were analyzed by flow cytometry using a FACSAria-III flow cytometer (BD Biosciences, USA). A homogeneous cell population was selected by size vs. granularity in log scale for these two conditions.
2x10^4 EA.hy926 cells/slide were seeded in Lab-Tek II Chamber Slide^TM (ThermoScientific, USA) and allowed to adhere overnight. […] After 16 hours of infection, cells were fixed in 4% formaldehyde–0.1 M phosphate buffer (pH 7.3) for 10 min. Cells were blocked with 3% bovine serum albumin for 1 hour. Then, cells were incubated with monoclonal antibodies against E-selectin (1:100), VCAM-1 (1:250) and ICAM-1 (1:100) (from Abcam, UK) overnight at 4°C. The samples were washed with PBS and incubated with anti-rabbit IgG that had been conjugated with fluorescein (1:100) from Sigma-Aldrich for 1 h. Finally, nuclei were stained with DAPI for 5 minutes and mounted with Dako Fluorescence Mounting (Dako, USA). The cells were photographed using a Nikon Eclipse 400 fluorescence microscope (Nikon, Japan), and images were analyzed by mean intensity using ImageJ software (ImageJ 1.47v).

[2] = system: NF-κB pathway (p-IKK, p-IκB) in T. cruzi-infected EA.hy926 cells; assay: IKK and IκB phosphorylation by Western blot; conditions: exogenous 15-epi-LXA4 for 24 hours before T. cruzi 1 hour
Method: 5x10^5 endothelial cells were rinsed once with PBS and scraped. Proteins were extracted into 100 μL RIPA buffer plus a protease and phosphatase inhibitor cocktail (Radio-Immunoprecipitation Assay; Millipore Corporation, USA) at 4°C. Total protein was quantified with the Lowry assay. Samples in loading buffer (10% SDS, 50% glycerol, 0.5 M Tris, 0.1% bromophenol blue, and 1 M dithiothreitol, pH 6.8) were electrophoretically separated by 10% SDS-PAGE and transferred to a nitrocellulose membrane. Nitrocellulose membranes were incubated with blocking solution (5% w/v nonfat dry milk, 0.1% Tween-20 in Tris-buffered saline) at room temperature for 1 hour. Then, the membranes were incubated at 4°C overnight with 1 mL solution of primary antibodies against E-selectin (1:1000) and α-Tubulin (1:10.000) from Sigma-Aldrich, ICAM-1 (1:2000) and VCAM-1 (1:1000) from Abcam, 7 ml solution of p-IKK (1:1000), IKK (1:1000), p-IκB (1:1000) and IκB (1:1000) from Cell signaling (Cell Signaling Technologies, USA). Bound antibodies were detected with horseradish peroxidase-conjugated secondary antibodies and visualized by Lumminata forte (Millipore). The nitrocellulose was stripped between reprobes using Mild stripping (Millipore) for 10 minutes. Developed films were scanned, and band densitometry was analyzed using ImageJ software (ImageJ 1.47v).

[3] = system: NF-κB p65 in T. cruzi-infected EA.hy926 cells; assay: Nuclear p65 localization by confocal microscopy; conditions: 100 nM 15-epi-LXA4 before T. cruzi 1 hour
Method: 2x10^4 EA.hy926 cells were seeded in Lab-Tek II Chamber Slides^TM for 12 hours. Cells were fixed in 3.7% formaldehyde–0.1 M phosphate buffer (pH 7.3) for 10 min. They were then washed with cytoskeletal buffer followed by permeabilization for 5 min with Triton-X100 0.5%. Cells were blocked with 3% bovine serum albumin for 1 hour. […] The samples were washed with PBS and incubated with anti-rabbit IgG conjugated with fluorescein (1:100) from Sigma-Aldrich for 1 hour. Finally, nuclei were stained with DAPI for 5 minutes and mounted in Dako fluorescence mounting media. The cells were photographed and ten pictures per well were obtained; images were analyzed using ImageJ software (ImageJ 1.47v).

SMILES: CCCCC[C@@H](O)/C=C/C=C\C=C\C=C\[C@@H](O)[C@@H](O)CCCC(=O)O [15-epi-LXA4, 15-epi-lipoxin A4]
- Endothelial adhesion molecule expression ([1]; 1 and 10 nM 15-epi-LXA4 for 24 hours before 16 hours infection): reduced endothelial adhesion molecule expression
- IKK-IκB pathway activity [2]: decreased IKK-IκB pathway activity in a dose-dependent fashion
- Nuclear p65 migration [3]: decreased nuclear p65 migration

SMILES: CC1=C(C)C(=O)C(CCCCC#CCCCC#CCO)=C(C)C1=O [AA-861, 2-(12-hydroxydodeca-5,10-diynyl)-3,5,6-trimethyl-p-benzoquinone]
- ICAM expression in presence of simvastatin plus 5-lipoxygenase inhibitor ([1]; 5 μM simvastatin with AA-861 (50 μM) for 24 hours before 16 hours infection): ICAM expression was restored
